# Where “and” joins values, the source holds several entries; their conditions need not be identical. Equal entries are not always repeated. Where two headings read alike, the source gives them in different places.
# Key:
# [1] = system: P. falciparum Dd2-2D4; assay: P. falciparum asexual blood stage (ABS) growth assay, SYBR Green, 72 h, wild-type parasites; assay type: cell-based, Plasmodium falciparum; details: Plasmodium falciparum, DD2; SI Fig 16b; values on -log scale; read-out: ABS - Dd2-2D4 (converted)
# [2] = target: T1, PfcProRS (Plasmodium falciparum, UniProt Q8I5R7); assay type: binding; details: for dose-response signal (normalized), SI Fig 8: single replicates
# T1 construct: made in house; host or cells: E. coli SoluBL-21
# [3] = target: HsProRS (Homo sapiens, UniProt P07814); assay: TR-FRET ligand displacement assay with tracer MAT379 (CoraFluor-1-Halo and anti-His6 antibody formats); assay type: binding; set-up: made in house; host or cells: E. coli SoluBL-21; details: for TR-FRET dose-response, normalized signal (SI Fig 11): individual replicates
# [4] = HsProRS (KD [nM]) mean, no added proline/ATP (-)
# [5] = HsProRS - best Kd, SI Fig 16a, values on -log scale
# T1 sequence (Q8I5R7 249-746): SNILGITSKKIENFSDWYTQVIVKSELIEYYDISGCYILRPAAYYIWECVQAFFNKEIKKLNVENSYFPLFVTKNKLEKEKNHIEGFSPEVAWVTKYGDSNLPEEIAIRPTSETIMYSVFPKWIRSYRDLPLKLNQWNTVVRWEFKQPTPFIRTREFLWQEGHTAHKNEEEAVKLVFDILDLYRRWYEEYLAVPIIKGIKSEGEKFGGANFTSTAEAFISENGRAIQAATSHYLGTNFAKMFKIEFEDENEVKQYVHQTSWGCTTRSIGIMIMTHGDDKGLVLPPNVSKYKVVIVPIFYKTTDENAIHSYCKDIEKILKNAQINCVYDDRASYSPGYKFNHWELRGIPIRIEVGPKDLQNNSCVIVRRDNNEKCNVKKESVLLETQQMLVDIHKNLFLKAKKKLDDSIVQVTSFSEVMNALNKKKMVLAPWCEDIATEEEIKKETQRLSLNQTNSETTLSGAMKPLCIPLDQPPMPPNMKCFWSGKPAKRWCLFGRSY
# Sequence of HsProRS (P07814 996-1512): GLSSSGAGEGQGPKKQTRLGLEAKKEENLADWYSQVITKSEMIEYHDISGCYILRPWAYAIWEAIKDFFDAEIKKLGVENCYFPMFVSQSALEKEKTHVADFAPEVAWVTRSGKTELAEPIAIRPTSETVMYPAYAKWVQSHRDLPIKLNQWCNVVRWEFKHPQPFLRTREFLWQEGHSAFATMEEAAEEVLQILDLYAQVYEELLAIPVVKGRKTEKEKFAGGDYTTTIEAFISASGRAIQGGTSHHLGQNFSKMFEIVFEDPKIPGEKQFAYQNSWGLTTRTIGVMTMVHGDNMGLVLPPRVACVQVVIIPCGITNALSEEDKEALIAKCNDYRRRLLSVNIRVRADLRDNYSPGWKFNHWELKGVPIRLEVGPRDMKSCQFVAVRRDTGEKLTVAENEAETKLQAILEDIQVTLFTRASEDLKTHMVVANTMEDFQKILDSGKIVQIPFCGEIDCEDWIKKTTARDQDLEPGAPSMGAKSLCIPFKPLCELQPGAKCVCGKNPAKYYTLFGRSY
compound,measurement,setting,value
O=C(NC1Cc2ccccc2C1)c1nccnc1NC(=O)N1CCC(CCO)CC1 [compound 12],EC50,[1],153 nM
same,"dose-response signal (normalized), SI Fig 8",[2]; Log[inhibitor] (M) -5.000,1.96E-01 and 6.39E-02 and 9.88E-02
same,"dose-response signal (normalized), SI Fig 8",[2]; Log[inhibitor] (M) -5.301,1.70E-01 and 1.45E-01 and 2.26E-01
same,"dose-response signal (normalized), SI Fig 8",[2]; Log[inhibitor] (M) -5.601,3.61E-01 and 2.68E-01 and 3.67E-01
same,"dose-response signal (normalized), SI Fig 8",[2]; Log[inhibitor] (M) -5.904,5.30E-01 and 5.32E-01 and 5.86E-01
same,"dose-response signal (normalized), SI Fig 8",[2]; Log[inhibitor] (M) -6.208,7.40E-01 and 8.32E-01 and 8.18E-01
same,"dose-response signal (normalized), SI Fig 8",[2]; Log[inhibitor] (M) -6.509,9.11E-01 and 8.45E-01 and 9.67E-01
same,"dose-response signal (normalized), SI Fig 8",[2]; Log[inhibitor] (M) -6.796,1.07E+00 and 9.35E-01 and 8.42E-01
same,"dose-response signal (normalized), SI Fig 8",[2]; Log[inhibitor] (M) -7.108,1.04E+00 and 9.91E-01 and 9.07E-01
same,"dose-response signal (normalized), SI Fig 8",[2]; Log[inhibitor] (M) -7.409,1.05E+00 and 1.07E+00 and 9.30E-01
same,"dose-response signal (normalized), SI Fig 8",[2]; Log[inhibitor] (M) -7.710,9.50E-01 and 9.05E-01 and 1.01E+00
same,"dose-response signal (normalized), SI Fig 8",[2]; Log[inhibitor] (M) -8.000,1.00E+00 and 9.33E-01 and 9.19E-01
same,"dose-response signal (normalized), SI Fig 8",[2]; Log[inhibitor] (M) -8.301,1.00E+00 and 9.74E-01 and 1.08E+00
same,"dose-response signal (normalized), SI Fig 8",[2]; Log[inhibitor] (M) -8.602,9.86E-01 and 9.74E-01 and 9.65E-01
same,"dose-response signal (normalized), SI Fig 8",[2]; Log[inhibitor] (M) -9.000,9.41E-01 and 9.53E-01 and 9.73E-01
same,"dose-response signal (normalized), SI Fig 8",[2]; Log[inhibitor] (M) -9.301,9.78E-01 and 8.31E-01 and 1.01E+00
same,PfcProRS -- best Kd,"[2]; SI Fig 16a, values on -log scale",6.470
same,Kd,[3]; [4],687 nM
same,Kd,[3]; [5],150 nM
same,"normalized TR-FRET ligand displacement signal, dose-response replicates (SI Fig 6)",[3]; Log[inhibitor] (M) -5.000,1.59E-01 and 1.60E-01 and 2.09E-01
same,"TR-FRET dose-response, normalized signal (SI Fig 11)",[3]; Log[inhibitor] (M) -5.000,3.68E-02 (2×) and 3.81E-02
same,"normalized TR-FRET ligand displacement signal, dose-response replicates (SI Fig 6)",[3]; Log[inhibitor] (M) -5.301,3.23E-01 and 2.51E-01 and 1.66E-01
same,"TR-FRET dose-response, normalized signal (SI Fig 11)",[3]; Log[inhibitor] (M) -5.301,1.17E-01 and 1.16E-01 and 1.37E-01
same,"normalized TR-FRET ligand displacement signal, dose-response replicates (SI Fig 6)",[3]; Log[inhibitor] (M) -5.601,4.15E-01 (2×) and 3.76E-01
same,"TR-FRET dose-response, normalized signal (SI Fig 11)",[3]; Log[inhibitor] (M) -5.601,3.29E-01 and 2.78E-01 and 2.37E-01
same,"normalized TR-FRET ligand displacement signal, dose-response replicates (SI Fig 6)",[3]; Log[inhibitor] (M) -5.904,6.44E-01 and 5.20E-01 and 5.13E-01
same,"TR-FRET dose-response, normalized signal (SI Fig 11)",[3]; Log[inhibitor] (M) -5.904,4.76E-01 and 4.29E-01 and 4.93E-01
same,"normalized TR-FRET ligand displacement signal, dose-response replicates (SI Fig 6)",[3]; Log[inhibitor] (M) -6.208,7.49E-01 and 7.87E-01 and 7.20E-01
same,"TR-FRET dose-response, normalized signal (SI Fig 11)",[3]; Log[inhibitor] (M) -6.208,5.93E-01 and 6.01E-01 and 5.70E-01
same,"normalized TR-FRET ligand displacement signal, dose-response replicates (SI Fig 6)",[3]; Log[inhibitor] (M) -6.509,9.12E-01 and 8.62E-01 and 8.67E-01
same,"TR-FRET dose-response, normalized signal (SI Fig 11)",[3]; Log[inhibitor] (M) -6.509,7.07E-01 and 6.82E-01 and 7.18E-01
same,"normalized TR-FRET ligand displacement signal, dose-response replicates (SI Fig 6)",[3]; Log[inhibitor] (M) -6.796,1.06E+00 and 1.12E+00 and 9.20E-01
same,"TR-FRET dose-response, normalized signal (SI Fig 11)",[3]; Log[inhibitor] (M) -6.796,7.97E-01 and 7.75E-01 and 7.79E-01
same,"normalized TR-FRET ligand displacement signal, dose-response replicates (SI Fig 6)",[3]; Log[inhibitor] (M) -7.108,1.07E+00 and 1.02E+00 and 1.12E+00
same,"TR-FRET dose-response, normalized signal (SI Fig 11)",[3]; Log[inhibitor] (M) -7.108,8.56E-01 and 8.75E-01 and 8.83E-01
same,"normalized TR-FRET ligand displacement signal, dose-response replicates (SI Fig 6)",[3]; Log[inhibitor] (M) -7.409,1.02E+00 and 1.06E+00 (2×)
same,"TR-FRET dose-response, normalized signal (SI Fig 11)",[3]; Log[inhibitor] (M) -7.409,8.85E-01 and 8.47E-01 and 8.63E-01
same,"normalized TR-FRET ligand displacement signal, dose-response replicates (SI Fig 6)",[3]; Log[inhibitor] (M) -7.710,9.85E-01 and 1.01E+00 and 9.72E-01
same,"TR-FRET dose-response, normalized signal (SI Fig 11)",[3]; Log[inhibitor] (M) -7.710,8.80E-01 and 8.88E-01 and 8.59E-01
same,"normalized TR-FRET ligand displacement signal, dose-response replicates (SI Fig 6)",[3]; Log[inhibitor] (M) -8.000,9.44E-01 and 9.64E-01 and 9.22E-01
same,"TR-FRET dose-response, normalized signal (SI Fig 11)",[3]; Log[inhibitor] (M) -8.000,9.20E-01 and 9.38E-01 and 9.24E-01
same,"normalized TR-FRET ligand displacement signal, dose-response replicates (SI Fig 6)",[3]; Log[inhibitor] (M) -8.301,9.32E-01 and 1.05E+00 and 8.26E-01
same,"TR-FRET dose-response, normalized signal (SI Fig 11)",[3]; Log[inhibitor] (M) -8.301,8.82E-01 and 8.99E-01 and 9.20E-01
same,"normalized TR-FRET ligand displacement signal, dose-response replicates (SI Fig 6)",[3]; Log[inhibitor] (M) -8.602,1.02E+00 and 1.07E+00 and 9.72E-01
same,"TR-FRET dose-response, normalized signal (SI Fig 11)",[3]; Log[inhibitor] (M) -8.602,9.41E-01 and 8.91E-01 and 9.25E-01
same,"normalized TR-FRET ligand displacement signal, dose-response replicates (SI Fig 6)",[3]; Log[inhibitor] (M) -9.000,9.71E-01 and 8.87E-01 and 1.00E+00
same,"TR-FRET dose-response, normalized signal (SI Fig 11)",[3]; Log[inhibitor] (M) -9.000,9.29E-01 and 9.20E-01 and 9.52E-01
same,"normalized TR-FRET ligand displacement signal, dose-response replicates (SI Fig 6)",[3]; Log[inhibitor] (M) -9.301,1.06E+00 and 9.50E-01 and 9.98E-01
same,"TR-FRET dose-response, normalized signal (SI Fig 11)",[3]; Log[inhibitor] (M) -9.301,9.00E-01 and 9.10E-01 and 9.03E-01
O=C(NC1Cc2ccccc2C1)c1nccnc1NC(=O)C1(O)CCCCC1 [compound 15],EC50,[1],1500 nM
same,Kd,[3]; [4],2700 nM
same,Kd,[3]; [5],21.8 nM

# Reference: publication PMC9403976, “Elucidating the path to Plasmodium prolyl-tRNA synthetase inhibitors that overcome halofuginone resistance” (Nature Communications, 2022)
